The values below are quoted from earlier work in patent US9987231B2, “Compositions and methods for delivery of omeprazole plus acetylsalicylic acid” (POZEN INC., priority 2011, dated 2018).

For the compound `COc1ccc2[nH]c([S+]([O-])Cc3ncc(C)c(OC)c3C)nc2c1` (racemic) [Omeprazole], for the setting “after repeated dose”, the Systemic bioavailability result is recorded as “about 60%”. In addition, the “Orally given dose excreted as metabolites in the urine” value (in vivo, po) was “About 80%”. For the same compound, for the setting “small intestine”, the “Time in which absorption is usually completed” value was 3 to 6 h. Besides, the Plasma protein binding entry in the data set with Plasma protein is “about 95%”.
